Consider 29 compounds from US12391679B2, “Benzamide-substituted bicyclic imidazo- and pyrazolo-fused -pyridine, -pyrimide, and -pyridazine compounds for treatment of inflammatory diseases” (ONCO3R Therapeutics BV, priority 2019, dated 2025).

Like-named read-outs stand apart in the source and are kept apart here.

In this test the test system is LPS-induced TNFα in monocyte-derived macrophages. The test can be described thus: MdM assay: LPS-triggered TNFα (ELISA). Type of test: cell-based, human. The method in brief:
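TNFα secretion quantified by streptavidin-HRP/luminol sandwich ELISA in supernatants collected 20 h after LPS (200 ng/mL). Macrophages derived from magnetically isolated human CD14+ monocytes were used at day 10, with compound added 1 h before LPS; final DMSO 0.2%.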

[1] abbreviates: Macrophage, human MdM, LPS 200 ng/mL, supernatant after 20 h, inhibition of TNFα, read-out: TNFα EC50.

As to `COc1cc(-c2cnn3cc(C(C)(C)COS(C)(=O)=O)ccc23)cc(OC(F)F)c1C(=O)N[C@@H]1C[C@@H]1F` [Cpd 267, [2-[3-[3-(difluoromethoxy)-4-[[(1R,2S)-2-fluorocyclopropyl]carbamoyl]-5-methoxy-phenyl]pyrazolo[1,5-a]pyridin-6-yl]-2-methyl-propyl]methanesulfonate], the EC50 (commonly the concentration needed to bring the measured effect to its halfway point) under setting [1] lay within 100 to 1000 nM.
`COc1cc(-c2cnc3cc(C4(C#N)COC4)ccn23)cc(OC(F)F)c1C(=O)NC1CC1` [Cpd 117, 4-[7-(3-cyanooxetan-3-yl)imidazo[1,2-a]pyridin-3-yl]-N-cyclopropyl-2-(difluoromethoxy)-6-methoxy-benzamide]: under setting [1], the EC50 lay in the range of 100 to 1000 nM.
Take `COc1cc(-c2cnc3cc([C@@](C)(O)C4CC4)ccn23)cc(OC(F)F)c1C(=O)NC1CC1` (single isomer, unassigned) [Cpd 162, N-cyclopropyl-4-[7-(1-cyclopropyl-1-hydroxy-ethyl)imidazo[1,2-a]pyridin-3-yl]-2-(difluoromethoxy)-6-methoxy-benzamide]: the EC50 under setting [1] was in the range of 100 to 1000 nM.
Still for that read-out and setting: the result for `COc1cc(-c2cnc3cc(C(C)N4CCCCC4)ccn23)cc(OC(F)F)c1C(=O)NC1CC1` (centres unmarked) [Cpd 146, N-cyclopropyl-2-(difluoromethoxy)-6-methoxy-4-[7-[1-(1-piperidyl)ethyl]imidazo[1,2-a]pyridin-3-yl]benzamide] reads 1000 to 5000 nM.
Take `COc1cc(-c2cnc3cc(C4(O)CCC4)ccn23)cc(OC(F)F)c1C(=O)N[C@@H]1C[C@@H]1F` [Cpd 205, 2-(difluoromethoxy)-N-[(1R,2S)-2-fluorocyclopropyl]-4-[7-(1-hydroxycyclobutyl)imidazo[1,2-a]pyridin-3-yl]-6-methoxy-benzamide]: the EC50 under setting [1] fell in the range of 100 to 1000 nM.
Turning to `CC[C@](C)(O)c1ccn2c(-c3cc(OC)c(C(=O)NC4CC4)c(OC(F)F)c3)cnc2c1` (single isomer, unassigned) [Cpd 165, N-cyclopropyl-2-(difluoromethoxy)-4-[7-(1-hydroxy-1-methyl-propyl)imidazo[1,2-a]pyridin-3-yl]-6-methoxy-benzamide], the EC50 (human MdM, LPS 200 ng/mL, supernatant after 20 h, inhibition of TNFα, read-out: TNFα EC50) fell in the range of 100 to 1000 nM.
Consider `COc1cc(-c2cnc3cc(C(C)(C)C(C)O)ccn23)cc(OC(F)F)c1C(=O)NC1CC1` (centres unmarked) [Cpd 172, N-cyclopropyl-2-(difluoromethoxy)-4-[7-(2-hydroxy-1,1-dimethyl-propyl)imidazo[1,2-a]pyridin-3-yl]-6-methoxy-benzamide], for which the EC50 under setting [1] lay within 100 to 1000 nM.
With `CC[C@](C)(O)c1ccn2c(-c3cc(OC)c(C(=O)NC4CC4)c(OC(F)F)c3)cnc2c1` (single isomer, unassigned) [Cpd 164, N-cyclopropyl-2-(difluoromethoxy)-4-[7-(1-hydroxy-1-methyl-propyl)imidazo[1,2-a]pyridin-3-yl]-6-methoxy-benzamide], the EC50 under setting [1] was in the range of 100 to 1000 nM.
On the same count and under the same terms, with `COc1cc(-c2cnc3cc([C@@](C)(C#N)CO)ccn23)cc(OC(F)F)c1C(=O)NC1CC1` (single isomer, unassigned) [Cpd 189, 4-[7-(1-cyano-2-hydroxy-1-methyl-ethyl)imidazo[1,2-a]pyridin-3-yl]-N-cyclopropyl-2-(difluoromethoxy)-6-methoxy-benzamide] the figure was 1000 to 5000 nM; with `COc1cc(-c2cnc3cc(C4(O)CCC4)ccn23)cc(OC(F)F)c1C(=O)NC1CC1` [Cpd 173, N-cyclopropyl-2-(difluoromethoxy)-4-[7-(1-hydroxycyclobutyl)imidazo[1,2-a]pyridin-3-yl]-6-methoxy-benzamide], 100 to 1000 nM; with `COc1cc(-c2cnc3cc(C(C)(C)C#N)ccn23)cc(OC(F)F)c1C(=O)NC1CC1` [Cpd 19, 4-[7-(1-cyano-1-methyl-ethyl)imidazo[1,2-a]pyridin-3-yl]-N-cyclopropyl-2-(difluoromethoxy)-6-methoxy-benzamide], 100 to 1000 nM.
In the case of `COc1cc(-c2cnc3cc(C(C)(C)C#N)ccn23)cc(OC(F)F)c1C(=O)N1CC(F)C1` [Cpd 96, 2-[3-[3-(difluoromethoxy)-4-(3-fluoroazetidine-1-carbonyl)-5-methoxy-phenyl]imidazo[1,2-a]pyridin-7-yl]-2-methyl-propanenitrile], the concentration for a half-maximal effect (EC50) under setting [1] was in the range of 100 to 1000 nM.
`COc1cc(-c2cnc3cc(C4(C#N)CCOCC4)ccn23)cc(OC)c1C(=O)NCC(F)(F)F` [Cpd 107, 4-[7-(4-cyanotetrahydropyran-4-yl)imidazo[1,2-a]pyridin-3-yl]-2,6-dimethoxy-N-(2,2,2-trifluoroethyl)benzamide]: the EC50 under setting [1] was in the range of 1000 to 5000 nM.
The same measure, in the same setting: the result for `COc1cc(-c2cnc3cc(C4CCCN(C(=O)OC(C)(C)C)C4)ccn23)cc(OC(F)F)c1C(=O)NC1CC1` (centres unmarked) [Cpd 64, tert-butyl 3-[3-[4-(cyclopropylcarbamoyl)-3-(difluoromethoxy)-5-methoxy-phenyl]imidazo[1,2-a]pyridin-7-yl]piperidine-1-carboxylate] reads 100 to 1000 nM.
For the compound `COc1cc(-c2cnn3cc(C(C)(C)O)ccc23)cc(OC(F)F)c1C(=O)N[C@@H]1C[C@@H]1F` [Cpd 227, 2-(difluoromethoxy)-N-[(1R,2S)-2-fluorocyclopropyl]-4-[6-(1-hydroxy-1-methyl-ethyl)pyrazolo[1,5-a]pyridin-3-yl]-6-methoxy-benzamide], the EC50 under setting [1] fell in the range of 100 to 1000 nM.
For the compound `COc1cc(-c2cnn3cc(C4(C#N)CC4)ccc23)cc(OC(F)F)c1C(=O)N[C@@H]1C[C@@H]1F` [Cpd 235, 4-[6-(1-cyanocyclopropyl)pyrazolo[1,5-a]pyridin-3-yl]-2-(difluoromethoxy)-N-[(1R,2S)-2-fluorocyclopropyl]-6-methoxy-benzamide], the EC50 under setting [1] fell in the range of 100 to 1000 nM.
As for `COc1cc(-c2cnc3cc(C4(C#N)CCOC4)ccn23)cc(OC(F)F)c1C(=O)NC1CC1` (centres unmarked) [Cpd 123, 4-[7-(3-cyanotetrahydrofuran-3-yl)imidazo[1,2-a]pyridin-3-yl]-N-cyclopropyl-2-(difluoromethoxy)-6-methoxy-benzamide], the EC50 under setting [1] lay within 1000 to 5000 nM.
`COc1cc(-c2cnc3cc(C(C)(C)CN)ccn23)cc(OC(F)F)c1C(=O)NC1CC1` [Cpd 93, 4-[7-(2-amino-1,1-dimethyl-ethyl)imidazo[1,2-a]pyridin-3-yl]-N-cyclopropyl-2-(difluoromethoxy)-6-methoxy-benzamide]: the EC50 under setting [1] is 1000 to 5000 nM.
On the same count and under the same terms, the result for `COc1cc(-c2cnc3cc(C(C)(C)O)ccn23)cc(OC(F)F)c1C(=O)N[C@@H]1C[C@@H]1F` [Cpd 211, 2-(difluoromethoxy)-N-[(1R,2S)-2-fluorocyclopropyl]-4-[7-(1-hydroxy-1-methyl-ethyl)imidazo[1,2-a]pyridin-3-yl]-6-methoxy-benzamide] reads 100 to 1000 nM.
Turning to `[2H]C([2H])([2H])C(C#N)(c1ccc2c(-c3cc(OC)c(C(=O)N[C@@H]4C[C@@H]4F)c(OC(F)F)c3)cnn2c1)C([2H])([2H])[2H]` [Cpd 275, 4-[6-[1-cyano-2,2,2-trideuterio-1-(trideuteriomethyl)ethyl]pyrazolo[1,5-a]pyridin-3-yl]-2-(difluoromethoxy)-N-[(1R,2S)-2-fluorocyclopropyl]-6-methoxy-benzamide], the half-maximal effective concentration (EC50) (Homo sapiens, Macrophage, 20 h, read-out: TNFα EC50 (nM)) fell in the range of 100 to 1000 nM.
For the compound `COc1cc(-c2cnn3cc(C4COC4)ccc23)cc(OC(F)F)c1C(=O)N[C@@H]1C[C@@H]1F` [Cpd 218, 2-(difluoromethoxy)-N-[(1R,2S)-2-fluorocyclopropyl]-6-methoxy-4-[6-(oxetan-3-yl)pyrazolo[1,5-a]pyridin-3-yl]benzamide], under setting [1], the EC50 lay within 100 to 1000 nM.
On the same count and under the same terms, with `COc1cc(-c2cnn3cc(C4COCCO4)ccc23)cc(OC(F)F)c1C(=O)NC1CC1` (centres unmarked) [Cpd 232, N-cyclopropyl-2-(difluoromethoxy)-4-[6-(1,4-dioxan-2-yl)pyrazolo[1,5-a]pyridin-3-yl]-6-methoxy-benzamide] the figure was 100 to 1000 nM.
As for `CCC(C)(C#N)c1ccn2c(-c3cc(OC)c(C(=O)NC4CC4)c(OC(F)F)c3)cnc2c1` (centres unmarked) [Cpd 27, 4-[7-(1-cyano-1-methyl-propyl)imidazo[1,2-a]pyridin-3-yl]-N-cyclopropyl-2-(difluoromethoxy)-6-methoxy-benzamide], under setting [1], the EC50 lay within 100 to 1000 nM.
`COc1cc(-c2cnc3cc(C(F)(F)CO)ccn23)cc(OC(F)F)c1C(=O)NC1CC1` [Cpd 136, N-cyclopropyl-4-[7-(1,1-difluoro-2-hydroxy-ethyl)imidazo[1,2-a]pyridin-3-yl]-2-(difluoromethoxy)-6-methoxy-benzamide]: the EC50 under setting [1] is 100 to 1000 nM.
In the case of `COc1cc(-c2cnc3cc(C4(C#N)CCOCC4)ccn23)cc(OC(F)F)c1C(=O)NC1CC1` [Cpd 116, 4-[7-(4-cyanotetrahydropyran-4-yl)imidazo[1,2-a]pyridin-3-yl]-N-cyclopropyl-2-(difluoromethoxy)-6-methoxy-benzamide], the EC50 under setting [1] lay within 1000 to 5000 nM.
On to `COc1cc(-c2cnn3cc(C4COC4)ccc23)cc(OC(F)F)c1C(=O)NC1CC1` [Cpd 216, N-cyclopropyl-2-(difluoromethoxy)-6-methoxy-4-[6-(oxetan-3-yl)pyrazolo[1,5-a]pyridin-3-yl]benzamide], for which, under setting [1], the EC50 is 100 to 1000 nM.
For `COc1cc(-c2cnc3cc(C4(C#N)COC4)ccn23)cc(OC(F)F)c1C(=O)N[C@@H]1C[C@@H]1F` [Cpd 130, 4-[7-(3-cyanooxetan-3-yl)imidazo[1,2-a]pyridin-3-yl]-2-(difluoromethoxy)-N-[(1R,2S)-2-fluorocyclopropyl]-6-methoxy-benzamide], under setting [1], the EC50 fell in the range of 100 to 1000 nM.
For the compound `COc1cc(-c2cnn3cc(C(C)(C)N)ccc23)cc(OC(F)F)c1C(=O)N[C@@H]1C[C@@H]1F` [Cpd 256, 4-[6-(1-amino-1-methyl-ethyl)pyrazolo[1,5-a]pyridin-3-yl]-2-(difluoromethoxy)-N-[(1R,2S)-2-fluorocyclopropyl]-6-methoxy-benzamide], the EC50 under setting [1] was in the range of 1000 to 5000 nM.
Regarding `COc1cc(-c2cnc3cc(C4COC4)ccn23)cc(OC(F)F)c1C(=O)NC1CC1` [Cpd 174, N-cyclopropyl-2-(difluoromethoxy)-6-methoxy-4-[7-(oxetan-3-yl)imidazo[1,2-a]pyridin-3-yl]benzamide], the EC50 under setting [1] was 100 to 1000 nM.
